Results taken from patent publication US8716279B2, “Pharmaceutical compositions of clonazepam and method of use thereof” (Jazz Pharmaceuticals, Inc., priority 2006, dated 2014).
≈ marks a conversion by molar mass, not a printed value.

Assays:
[1] = Psychomotor, subjective and cognitive tests; type: in vivo; conditions: human
Description: D. Neurocognative Tests: The Cognitive Drug Research (CDR) computerized assessment system is specifically designed to evaluate the effects of compounds on the quality of cognitive functioning in subjects and patients in all phases of clinical development. The CDR system is a widely used computerized cognitive assessment system (see, for example, Ebert U, et al., “Pharmacokinetics and pharmacodynamics of scopolamine after subcutaneous administration,” Journal of Clinical Pharmacology 38: 720-726 (1998); Harrington F, et al., “Cognitive Performance in Hypertensive and Normotensive Older Subjects,” Hypertension 36: 1079-1082 (2000); Preece A W, et al., “Effect of a 915-MHz simulated mobile phone signal on cognitive function in man,” International Journal of Radiation Biology 75: 447-456 (1999); and Walker M P, et al., “Quantifying fluctuation in Dementia with Lewy Bodies, Alzheimer's disease and vascular dementia,” Neurology 54: 1616-1625 (2000)) and has been used to evaluate a diverse range of pharmaceutical compounds.
This example describes the pharmacodynamic effects of clonazepam compositions formulated for intranasal administration using neurocognitive tests. A selection of tests from a computerized assessment system of Cognitive Drug Research (“CDR,” Reading, United Kingdom) is employed. The study is typically a double-blind, randomized, placebo-controlled cross-over design. As a control, the group may receive clonazepam intravenous (i.v.) and placebo at selected dosages.
Cognitive function is typically assessed using an attentional task battery to assess attention and a word recognition task to assess secondary memory. […]
Tests may be administered, for example, in the following order: Word Presentation; Simple Reaction Time; Digit Vigilance; Choice Reaction Time; and Word Recognition. […] Summary statistics (m, number; mean; sem, standard error; sd, standard deviation; median; min, minimum; max, maximum; and missing) are typically calculated for each measure at each time point by dose. […]

[2] = Solubilities of clonazepam in glycol ethers at 3 temperatures
Procedure: The vials were then centrifuged at −5° C. and 5° C. for the −15° C. and 5° C. samples, respectively, at 5000 rpm for 2 minutes.

[3] = oral; cited from earlier work
[4] = Human pharmacokinetic, safety and tolerability study (oral, intravenous, intranasal cross-over)
Procedure: The human pharmacokinetics, safety, and tolerability of the clonazepam compositions of the present invention formulated for intranasal delivery for therapeutic applications are evaluated using standard clinical procedures. Clonazepam compositions formulated for intranasal delivery are provided, for example, for application by the participants to intranasal mucosa.
A primary objective of initial studies in humans is to determine and compare pharmacokinetic profiles of three dosage forms of clonazepam: oral, i.v., and intranasal, following single administration. An example of such a study in humans is a cross-over study performed in 12 healthy male volunteers. Plasma and urine level of clonazepam and 7-amino-clonazepam are determined, for example, using HPLC and UV detection. […] Further the initial studies in humans are used to determine local tolerability of intranasal formulation using questionnaire and the Visual Analog Scale (VAS). VAS is a validated instrument that has been used in numerous studies to quantify subjective opening of the nasal passages. In addition, cognitive, sleepiness and mood effects are evaluated using questionnaires and scales (see, e.g., Example 10 below). Further, attention and vigilance may be evaluated using, for example, LEEDS Psychomotor Multiple Choice Reaction Time (MCRT) testing.
A human pharmacokinetic study was carried out as described in Example 8.
15 young, healthy male volunteers received a single dose of 1 mg clonazepam by oral, intravenous and intranasal routes in a three-period cross-over design.

[5] = In vitro permeation across sheep nasal mucosa, Franz cells; conditions: saturated solution, Franz cell, 7 h, FIG. 1
Procedure: Freshly excised sheep nasal mucosa was used and prepared following a standard protocol. The excised sheep nasal mucosa was cleaned by rinsing with de-ionized water and either used fresh or placed flat over a filter paper and stored frozen until used.
(ii) Dosing and Sample Collection—Franz cell studies: Individually calibrated Franz cells with an average surface area and volume of approximately 0.6 cm^2 and 2 mL, respectively, were employed to determine the permeation characteristics of drug. The nasal sheep mucosa was mounted between the two halves of the Franz cell with the mucosal side facing the donor compartment. The receptor compartment was filled with receiver fluid, stirred constantly with a PTFE-coated magnetic follower driven by a submersible magnetic stirrer bed and maintained at 37° C. in a water bath. Approximately 1 mL (infinite dose) of saturated drug solution was placed into the donor compartment and covered with […] ® (Pechiney Plastic Packaging, Inc., Chicago, Ill.) throughout the study. Following the application of the drug solution, the receiver fluid (200 μL) was removed from the receptor compartment via the sampling arm after sampling times (t=1, 2, 3, 4, 5, 6 and 7 h) and analyzed via HPLC. Each sample removed was replaced by an equal volume of fresh pre-warmed (37° C.) receiver fluid. […]

[6] = Solubilities of clonazepam in solvent/water solutions (glycol ether + pH6.8 buffered water, 25° C.); type: physicochemical; conditions: Di (ethyleneglycol) diethyl ether, 20% solvent / 80% pH6.8 buffered water
Procedure: The vials were stored at 25° C. for approximately 1 day. Prior to sampling, the vials were centrifuged at 5000 rpm for 2 minutes at 23° C. The results are shown below; neat solvent solubilities from Example 11 are included for reference. Increased water content decreases solubility substantially.

SMILES: O=C1CN=C(c2ccccc2Cl)c2cc([N+](=O)[O-])ccc2N1 [Clonazepam, 5-(2-chlorophenyl)-1,3-dihydro-7-nitro-2H-1,4-benzodiazepin-2-one]
- time at which effects were first apparent (Leeds Psychomotor Test, Bond and Lader VAS, Karolinska Sleepiness Scale) ([1]; intranasal administration): approximately 30 minutes
- time at which effects were first apparent (Leeds Psychomotor Test, Bond and Lader VAS, Karolinska Sleepiness Scale) ([1]; intravenous administration): approximately 30 minutes
- time at which effects were first apparent (Leeds Psychomotor Test, Bond and Lader VAS, Karolinska Sleepiness Scale) ([1]; oral administration): approximately 2 hours
- Solubility ([2]; in 1,2-dimethyxoethane, 5 C.): 35.7 mg/mL (≈ 113 mM)
- Solubility ([2]; in 1,2-dimethyxoethane, −15 C.): 35.2 mg/mL (≈ 111 mM)
- Solubility ([2]; in Di (ethylene glycol) methyl ether, 5 C.): 53.9 mg/mL (≈ 171 mM)
- Solubility ([2]; in Di (ethylene glycol) methyl ether, −15 C.): 58.1 mg/mL (≈ 184 mM)
- Solubility ([2]; in Di (ethyleneglycol) diethyl ether, 5 C.): 18.5 mg/mL (≈ 58.6 mM)
- Solubility ([2]; in Di (ethyleneglycol) diethyl ether, −15 C.): 19.5 mg/mL (≈ 61.8 mM)
- Solubility ([2]; in Diethylene glycol monoethyl ether, 5 C.): 37.7 mg/mL (≈ 119 mM)
- Solubility ([2]; in Diethylene glycol monoethyl ether, −15 C.): 43.3 mg/mL (≈ 137 mM)
- time of maximum blood concentrations [3]: one to two
- Cmax of the intranasal route as % of that of the intravenous route ([4]; 1 mg): 17%
- Cmax of the intranasal route as % of that of the oral route ([4]; 1 mg): 93%
- median Tmax ([4]; 1 mg single dose, intravenous, 15 volunteers): 6 min
- mean Cmax (mean ±SD) ([4]; 1 mg, intranasal route): 7.12 ± 3.81 ng/mL
- mean Cmax (mean ±SD) ([4]; 1 mg, intravenous route): 42.5±10.8
- mean Cmax (mean ±SD) ([4]; 1 mg, oral route): 7.64 ± 1.74 ng/mL
- subjects reporting somnolence ([4]; after intranasal dosing, 10 of 15): approximately 67%
- subjects reporting nasal discomfort ([4]; after intranasal dosing, 12 of 15): approximately 80%
- subjects reporting sedation ([4]; after intravenous dosing): 3/15
- subjects reporting somnolence ([4]; after intravenous dosing): 11/15
- subjects reporting somnolence or sedation ([4]; after intravenous dosing): Approximately 93%
- subjects reporting somnolence ([4]; after oral dosing, 13 of 15): approximately 87%
- permeation across sheep nasal mucosa [5]: at steady state
- Solubilities (mg/mL) of Clonazepam in Solvent/Water Solutions [6]: 0.31 mg/mL
